Test results published in patent US7914768B2, “Stabiliser for radiopharmaceuticals” (GE Healthcare Limited, priority 2000, dated 2011).

assay: Rcp of ^99mTc-HMPAO after addition of a single stabiliser, two step process (Example 1); assay type: physicochemical; conditions: additive added 2 minutes post-radiolabelling; amount as in table; n = 3 (*n = 1)
Experimental: To each of ten vials each containing 0.5 mg of HMPAO and 4.0 μg of Sn^2+ (stannous), was added sodium pertechnetate (1.48 GBq in 5 ml of saline) to carry out the radiolabelling. To each of 9 of the ten reconstituted vials was individually added the compound shown in Table 1 at a time of 2 minutes post-radiolabelling. Nothing was added to the remaining vial. At 1 minute and 3 hours after the addition, an aliquot was taken from each vial and the Rcp measured by a combination of three chromatographic systems (stationary phase/developing solvent: silica gel/methyl ethyl ketone, silica gel/saline, filter paper/50% aqueous acetonitrile).

| Rcp 1 min from addition (%) | Rcp 3 hours from addition (%) | Structure (SMILES) |
| --- | --- | --- |
| 80 ± 8% | 67 ± 5% | Nc1ccc(C(=O)O)cc1 [4-Aminobenzoic acid, 4-aminobenzoic acid] |
| 83* % | 41* % | O=C1O[C@H]([C@@H](O)CO)C(O)=C1O [Ascorbic acid] |
| 61 ± 3% | 29 ± 13% | O=C(NCCO)c1cc(O)ccc1O [Gentisic acid ethanolamide] |
| 87 ± 2% | 77 ± 3% | O=C(O)c1cc(O)ccc1O [Gentisic acid] |
| 79* % | 30* % | O=P(O)(O)CP(=O)(O)O [Methylene diphosphonic acid, methylenediphosphonic acid] |
| 69 ± 5% | 39 ± 11% | Nc1ccc(C(=O)[O-])cc1.[Na+] [Sodium4-amino-benzoate, sodium 4-aminobenzoate] |
| 90* % | 51* % | O=C1O[C@H]([C@@H](O)CO)C([O-])=C1O.[Na+] [Sodium ascorbate] |
| 51* % | 14* % | O=C(O)CCC(=O)O [Succinic acid] |

| Structure (SMILES) | Rcp 1 min from addition (%) | Rcp 3 hours from addition (%) |
| --- | --- | --- |
| [Cl][Co][Cl] [Cobalt chloride] | 94 ± 3% | 89 ± 2% |
